The values below come from PMC2682652 (PLoS ONE, 2009).

In the test the test system is intraperitoneal MDA-MB-435 xenograft tumors. The test can be described thus: Tumor reduction study, peritoneal carcinomatosis. In kind it is in vivo, SCID-mice. The note with it: 6×1.85 MBq i.p., days 16-26 after inoculation, groups of 8 mice; p = 0.04.

Method: To generate intraperitoneal xenograft tumors, 6–8 week old SCID-mice (Charles River, Sulzfeld, Germany) were injected i.p. with 1×10^7 MDA-MB435 tumor cells. Mice were weighed weekly and were sacrificed when the mean normal body weigth decreased <25% or when mice developped tumor side effects like ascites or reduced general condititon. All experiments were performed according to the German law for the protection of animals.
SCID-mice (Charles River, Sulzfeld, Germany) were injected i.p. with 1×10^7 MDA-MB-435 cells expressing firefly luciferase in 100 µl PBS. […] All experiments were performed three times. The animals were controlled daily until they were sacrificed.

`O=C([O-])CN(CCN(CC(=O)[O-])CC(=O)[O-])CCN(CC(=O)[O-])CC(=O)[O-].[213Bi+3]` [^213Bi-DTPA]: the mean survival was 48 days.
